# Earlier results in patent US20240117436A1, “METHODS OF TREATING LIPEDEMA INCLUDING AKR1C2 AS A THERAPEUTIC TARGET” (MAGI EUREGIO SCS, priority 2021, published 2024).
# System: PGE2 and PGF2α levels
# Details: literature
row,Compound,Activity (prostaglandin levels)
1,Sennosides,increase PGE2 formation

# Biological target: AKR enzymes
# Details: mid-nanomolar value; read-out: affinity of cofactor in binding AKR enzymes
row,Compound,Kd
1,NADP(H) [NADP(H) (NPD)],100 nM

# Biological target: T1, AKR1C1 (Homo sapiens, UniProt Q04828)
# T1 sequence (Q04828 1-323): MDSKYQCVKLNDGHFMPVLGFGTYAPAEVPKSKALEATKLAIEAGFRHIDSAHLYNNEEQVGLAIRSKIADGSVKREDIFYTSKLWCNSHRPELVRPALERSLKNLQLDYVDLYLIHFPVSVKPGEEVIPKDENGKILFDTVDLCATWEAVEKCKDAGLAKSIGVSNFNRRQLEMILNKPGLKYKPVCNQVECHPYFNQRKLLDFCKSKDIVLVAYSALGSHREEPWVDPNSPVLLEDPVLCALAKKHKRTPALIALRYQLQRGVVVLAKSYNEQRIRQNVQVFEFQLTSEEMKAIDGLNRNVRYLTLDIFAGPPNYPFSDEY
# Details: not given
row,Compound,Enzyme activity (inhibition/activation)
1,O=C1CN=C(c2ccccn2)c2cc(Br)ccc2N1 [Bromazepam],inhibition
2,O=C1CN2CCOC2(c2ccccc2Cl)c2cc(Cl)ccc2N1 (centres unmarked) [Cloxazolam],inhibition
3,CN1C(=O)CN=C(c2ccccc2)c2cc(Cl)ccc21 [Diazepam],inhibition
4,CN1C(=O)CN=C(c2ccccc2F)c2cc([N+](=O)[O-])ccc21 [Flunitrazepam],inhibition
5,O=C1CN=C(c2ccccc2)c2cc([N+](=O)[O-])ccc2N1 [Nitrazepam],inhibition

# Same assay, conditions: AKR1C1, known from the literature
row,Compound,Enzyme activity (inhibition/activation)
1,"COC1=C(OC)C(=O)c2ccccc2C1=O [2,3-Dimethoxynaphthalene-1,4-Dione, 2,3-dimethoxynaphthalene-1,4-dione]",activation
2,"O=C(O)c1cc(I)cc(I)c1O [3,5-Diiodosalicylic Acid]",inhibition
3,"O=c1c(O)c(-c2ccccc2)oc2cc(O)ccc12 [3,7-Dihydroxyflavone]",inhibition
4,O=c1c(O)c(-c2ccccc2)oc2ccccc12 [3-Hydroxyflavone],inhibition
5,O=C(O)c1cccc(Oc2ccccc2)c1 [3-Phenoxybenzoic Acid],inhibition
6,O=c1cc(-c2ccccc2)oc2cccc(O)c12 [5-Hydroxyflavone],inhibition
7,COc1cccc2oc(-c3ccccc3)cc(=O)c12 [5-Methoxyflavone],inhibition
8,O=c1cc(-c2ccccc2)oc2cc(O)ccc12 [7-Hydroxyflavone],inhibition
9,C[C@H](O)[C@H]1CC[C@H]2[C@@H]3C=CC4=CC(=O)CC[C@@]4(C)[C@@H]3CC[C@]12C [20α-Hydroxydydrogesterone],inhibition
10,CC(C)C1=CC2=CC[C@@H]3[C@](C)(CCC[C@@]3(C)C(=O)O)[C@H]2CC1 [Abietic Acid],inhibition
11,CC(=O)Oc1ccccc1C(=O)O [Acetylsalicylic Acid],inhibition
12,O=c1cc(-c2ccc(O)cc2)oc2cc(O)cc(O)c12 [Apigenin],inhibition
13,COc1ccc(-c2coc3cc(O)cc(O)c3c2=O)cc1 [Biochanin A],inhibition
14,"O=c1cc(-c2ccccc2)oc2cc(O)cc(O)c12 [Chrysin, 5,7-Dihydroxyflavone]",inhibition
15,O=c1ccc2ccccc2o1 [Coumarin],inhibition
16,O=c1oc2cc(O)ccc2c2oc3cc(O)ccc3c12 [Coumestrol],inhibition
17,O=C1CCCC1 [Cyclopentanone],inhibition
18,O=c1c(-c2ccc(O)cc2)coc2cc(O)ccc12 [Daidzein],inhibition
19,O=C(O)Cc1ccccc1Nc1c(Cl)cccc1Cl [Diclofenac],inhibition
20,CC/C(=C(/CC)c1ccc(O)cc1)c1ccc(O)cc1 [Diethylstilbestrol],inhibition
21,CC(=O)[C@H]1CC[C@H]2[C@@H]3C=CC4=CC(=O)CC[C@@]4(C)[C@@H]3CC[C@]12C [Dydrogesterone],inhibition
22,C[C@]12CC[C@H]3C(=CCc4cc(O)ccc43)[C@@H]1CCC2=O [Equilin],inhibition
23,Clc1ccc2c(c1)C(c1ccccc1)=NCc1nncn1-2 [Estazolam],inhibition
24,C=C(CC)C(=O)c1ccc(OCC(=O)O)c(Cl)c1Cl [Ethacrynic Acid],activation
25,CCc1cccc2c3c([nH]c12)C(CC)(CC(=O)O)OCC3 (centres unmarked) [Etodolac],inhibition
26,O=C1CC(c2ccccc2)Oc2ccccc21 (centres unmarked) [Flavanone],inhibition
27,O=c1cc(-c2ccccc2)oc2ccccc12 [Flavone],inhibition

row,Compound,Enzyme activity (inhibition/activation)
1,O=c1c(-c2ccc(O)cc2)coc2cc(O)cc(O)c12 [Genistein],inhibition
2,CC1(C)[C@@H](O)CC[C@]2(C)[C@H]3C(=O)C=C4[C@@H]5C[C@@](C)(C(=O)O)CC[C@]5(C)CC[C@@]4(C)[C@]3(C)CC[C@@H]12 [Glycyrrhetinic Acid],inhibition
3,OO [Hydrogen peroxide],activation
4,CC(C)Cc1ccc(C(C)C(=O)O)cc1 (centres unmarked) [Ibuprofen],inhibition
5,COc1ccc2c(c1)c(CC(=O)O)c(C)n2C(=O)c1ccc(Cl)cc1 [Indomethacin],inhibition
6,O=c1c(O)c(-c2ccc(O)cc2)oc2cc(O)cc(O)c12 [Kaempferol],inhibition
7,CC(C(=O)O)c1cccc(C(=O)c2ccccc2)c1 (centres unmarked) [Ketoprofen],inhibition
8,O=C1C[C@@H](c2ccc(O[C@@H]3O[C@H](CO)[C@@H](O)[C@H](O)[C@H]3O)cc2)Oc2cc(O)ccc21 [Liquiritin],inhibition
9,O=c1cc(-c2ccc(O)c(O)c2)oc2cc(O)cc(O)c12 [Luteolin],inhibition
10,Cc1ccc(Cl)c(Nc2ccccc2C(=O)O)c1Cl [Meclofenamic Acid],inhibition
11,CN1CCN=C(c2ccccc2)c2cc(Cl)ccc21 [Medazepam],inhibition
12,CC(=O)O[C@]1(C(C)=O)CC[C@H]2[C@@H]3C[C@H](C)C4=CC(=O)CC[C@]4(C)[C@H]3CC[C@@]21C [Medroxyprogesterone Acetate],inhibition
13,CC/C=C\CC1C(=O)CCC1CC(=O)OC (centres unmarked) [Methyl Jasmonate],inhibition
14,COc1ccc2cc([C@H](C)C(=O)O)ccc2c1 [Naproxen],inhibition
15,O=C1C[C@@H](c2ccc(O)cc2)Oc2cc(O)cc(O)c21 [Naringenin],inhibition
16,C#C[C@]1(O)CC[C@H]2[C@@H]3CCC4=CC(=O)CC[C@@H]4[C@H]3CC[C@@]21C [Norethindrone],inhibition
17,CC1CN2CC(=O)Nc3ccc(Cl)cc3C2(c2ccccc2)O1 (centres unmarked) [Oxazolam],inhibition
18,CC(=O)Nc1ccc(O)cc1 [Paracetamol],inhibition
19,O=c1c(O)c(-c2ccc(O)c(O)c2)oc2cc(O)cc(O)c12 [Quercetin],inhibition
20,Oc1ccc(C=Cc2cc(O)cc(O)c2)cc1 [Resveratrol],inhibition
21,CC1=C(CC(=O)O)c2cc(F)ccc2/C1=C\c1ccc([S+](C)[O-])cc1 (centres unmarked) [Sulindac],inhibition
22,CC(C)(C)c1cc(O)ccc1O [T-Butylhydroquinone],activation
23,CC/C(=C(\c1ccccc1)c1ccc(OCCN(C)C)cc1)c1ccccc1 [Tamoxifen],inhibition
24,COc1c(O)cc(O)c2c(=O)cc(-c3ccccc3)oc12 [Wagonin],inhibition
25,C[C@H]1CCCC(=O)CCC/C=C/c2cc(O)cc(O)c2C(=O)O1 [Zearalenone],inhibition
26,Cc1cc(CC(=O)O)n(C)c1C(=O)c1ccc(Cl)cc1 [Zomepirac],inhibition

# Same assay, conditions: literature statements in the text
row,Compound,kind of AKR1C1 inhibition
1,O=C1C[C@@H](c2ccc(O[C@@H]3O[C@H](CO)[C@@H](O)[C@H](O)[C@H]3O)cc2)Oc2cc(O)ccc21 [Liquiritin],selective and potent AKR1C1 inhibitor
2,CN1CCN=C(c2ccccc2)c2cc(Cl)ccc21 [Medazepam],non-competitive inhibitors
